“And” between values parts separate entries of the source, which are not always exact repeats. Equal entries are not always repeated.
What was measured:
[1] = tested on: GluN1/2A/2B triheteromeric (1/2AB) NMDA receptors; assay: TEVC agonist dose-response, Xenopus oocytes expressing 1/2AB; assay type: cell-based; settings: without CNS4; 100 μM glutamate constant; relative to 1 μM glycine
Text: NMDA receptor constructs: cDNA encoding the NMDA receptor1a subunit (GluN1a) was obtained from Dr. Nakanishi (Kyoto, Japan). cDNA encoding the GluN2B (pci_sepGluN2B), originally developed in the Malinow lab,[33] was purchased from Addgene (cat# 23998), Cambridge, MA. cDNA encoding the GluN2C and GluN2D were purchased from GenScript, New Jersey, USA. Mutated GluN1, 2A and 2B cDNA constructs capable of assembling as GluN1/2A/2B triheteromeric (1/2AB) receptors[34] were obtained from Dr. Paoletti (Laboratoire de Neurobiologie, CNRS). These constructs have been previously tested for 1/2AB receptor activity of GluN1/2A receptor‐selective potentiators.[35] […] Plasmids were linearized with NotI (GluN1a and all five GluN1 mutants) or Avrll (GluN2B), or BstB1 (GluN2C and GluN2D) and transcribed in vitro with T7 (GluN1a, GluN1/2A, GluN2B, GluN2C & GluN2D), and SP6 (GluN1 mutants) RNA polymerase using the mMessage mMachine transcription kits (Invitrogen by Thermo Fisher Scientific).
Stage IV frog oocytes were obtained from Xenopus‐I, (Ann Arbor, MI, USA). NMDA receptor subunit cRNAs were suspended in nuclease free sterile water. GluN1A, GluN2B, GluN2C, GluN2D and GluN1/2A/2B cRNAs were mixed in a ratio of 1:1–3. 50 nL of the final cRNA mixture was microinjected (40–70 ng total) into the oocyte cytoplasm. Oocytes were incubated in ND‐96 solution at 18°C prior to electrophysiological recordings (2–5 days).
Electrophysiological responses were measured using a standard two‐microelectrode voltage‐clamp workstation (Warner Instruments model OC‐725C) designed to provide a fast clamp of large cells. The recording buffer contained 116 mM NaCl, 2 mM KCl, 0.3 mM BaCl2, and 5 mM HEPES, pH 7.4. Response magnitude was determined in Xenopus oocytes expressing different NMDA receptor subunits (GluN1/2A, 1/2B, 1/2C, 1/2D, and 1/2A/2B) by the steady plateau response elicited by bath application of different agonist concentrations. […] All data points were obtained from the steady state currents unless stated otherwise. Dose–response relationships were fit to an appropriate curve‐fitting equation using GraphPad Prism‐7. Non‐linear regression was used to calculate EC50, IC50, and fold change or percentage maximal response. Curves were fit using the following equations as performed in the previous studies, [37]: Y=100/1+10^LogEC50−XorY=Bottom+Top−Bottom/1+10^LogEC50−X . Statistical significance was determined at the overall alpha level 0.05, using appropriate statistical methods as described in all figure captions. Technical and biological replicates are explicitly mentioned in each figure legend, as n = X (Y). X represents technical repeats (number of traces) and Y represents biological repeats (number of oocytes or HEK293T cells studied). […]

[2] = target: T1, GluN1/2A NMDA receptors (UniProt P35439+Q12879); assay: TEVC antagonist block of agonist-induced currents, 1/2A; assay type: cell-based; settings: 100 μM glutamate and glycine, n = 7 (7)
T1 construct: expressed in transfected cells; host or cells: Xenopus oocytes (cRNA injection)
T1 sequence (Q12879 23-1464, other chains not shown): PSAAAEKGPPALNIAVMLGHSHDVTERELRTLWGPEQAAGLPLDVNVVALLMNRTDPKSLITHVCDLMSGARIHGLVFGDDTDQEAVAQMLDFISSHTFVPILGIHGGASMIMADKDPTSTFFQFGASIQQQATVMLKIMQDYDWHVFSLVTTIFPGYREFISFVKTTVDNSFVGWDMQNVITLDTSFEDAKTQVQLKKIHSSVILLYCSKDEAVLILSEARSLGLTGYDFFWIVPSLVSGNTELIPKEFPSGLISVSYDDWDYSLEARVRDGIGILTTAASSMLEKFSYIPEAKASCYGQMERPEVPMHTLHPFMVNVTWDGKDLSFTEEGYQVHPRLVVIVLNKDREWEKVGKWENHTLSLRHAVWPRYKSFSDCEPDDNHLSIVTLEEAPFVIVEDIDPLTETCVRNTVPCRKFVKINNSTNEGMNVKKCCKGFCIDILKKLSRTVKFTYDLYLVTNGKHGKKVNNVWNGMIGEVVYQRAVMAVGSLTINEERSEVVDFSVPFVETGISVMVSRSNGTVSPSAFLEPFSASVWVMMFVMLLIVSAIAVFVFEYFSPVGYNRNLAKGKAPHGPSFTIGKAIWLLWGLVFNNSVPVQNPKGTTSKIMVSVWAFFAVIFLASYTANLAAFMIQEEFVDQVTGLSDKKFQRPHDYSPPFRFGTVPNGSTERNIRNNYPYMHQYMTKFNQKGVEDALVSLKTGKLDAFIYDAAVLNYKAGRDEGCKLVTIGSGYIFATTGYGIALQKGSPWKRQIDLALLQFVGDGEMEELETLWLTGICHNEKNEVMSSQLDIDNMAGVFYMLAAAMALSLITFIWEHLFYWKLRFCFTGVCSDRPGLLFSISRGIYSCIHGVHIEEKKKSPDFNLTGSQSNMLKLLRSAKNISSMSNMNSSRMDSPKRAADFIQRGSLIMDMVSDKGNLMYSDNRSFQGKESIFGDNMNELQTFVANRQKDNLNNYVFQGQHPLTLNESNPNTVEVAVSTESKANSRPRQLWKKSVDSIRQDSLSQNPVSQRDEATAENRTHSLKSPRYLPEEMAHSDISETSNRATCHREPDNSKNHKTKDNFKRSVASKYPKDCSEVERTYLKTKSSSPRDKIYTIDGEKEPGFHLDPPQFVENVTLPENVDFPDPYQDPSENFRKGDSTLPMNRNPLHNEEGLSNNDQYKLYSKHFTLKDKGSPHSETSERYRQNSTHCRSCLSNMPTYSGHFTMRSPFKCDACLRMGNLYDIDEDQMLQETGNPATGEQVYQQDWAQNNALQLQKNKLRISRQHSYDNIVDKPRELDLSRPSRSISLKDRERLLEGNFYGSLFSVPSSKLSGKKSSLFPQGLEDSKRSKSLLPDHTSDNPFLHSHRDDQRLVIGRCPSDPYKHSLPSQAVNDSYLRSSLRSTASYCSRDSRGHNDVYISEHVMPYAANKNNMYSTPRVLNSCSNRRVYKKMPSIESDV
Protocol: (§1) Electrophysiological responses were measured using a standard two‐microelectrode voltage‐clamp workstation (Warner Instruments model OC‐725C) designed to provide a fast clamp of large cells. The recording buffer contained 116 mM NaCl, 2 mM KCl, 0.3 mM BaCl2, and 5 mM HEPES, pH 7.4. Response magnitude was determined in Xenopus oocytes expressing different NMDA receptor subunits (GluN1/2A, 1/2B, 1/2C, 1/2D, and 1/2A/2B) by the steady plateau response elicited by bath application of different agonist concentrations. […] All data points were obtained from the steady state currents unless stated otherwise. Dose–response relationships were fit to an appropriate curve‐fitting equation using GraphPad Prism‐7. Non‐linear regression was used to calculate EC50, IC50, and fold change or percentage maximal response. Curves were fit using the following equations as performed in the previous studies, [37]: Y=100/1+10^LogEC50−XorY=Bottom+Top−Bottom/1+10^LogEC50−X . Statistical significance was determined at the overall alpha level 0.05, using appropriate statistical methods as described in all figure captions. Technical and biological replicates are explicitly mentioned in each figure legend, as n = X (Y). X represents technical repeats (number of traces) and Y represents biological repeats (number of oocytes or HEK293T cells studied). […] For the data sets with nonparametric distribution, Wilcoxon signed rank test is a nonparametric test was used (Figure 1). Paired or unpaired t‐tests were for used only compare the datasets obtained with and without CNS4 dose response curves.
(§2) If CNS4 directly competes with GluN1 or GluN2 competitive antagonists or indirectly influences the activity, there should be a change in DCKA and/ or DL‐AP5 activity in blocking agonist‐induced currents.
FIGURE 4 Effect of CNS4 on competitive and uncompetitive NMDA receptor antagonists. […] A similar experiment was performed with 100 μM DL‐AP5. […] Paired student‐t test was performed to calculate the statistical significance. […] Unpaired student‐t test was performed to calculate the statistical significance. *p < .05; NS, not significant.

[3] = target: T2, GluN1/2D NMDA receptors (UniProt O15399+P35439); assay: TEVC antagonist block of agonist-induced currents, 1/2D; assay type: cell-based; settings: 100 μM glutamate and glycine
T2 construct: host or cells: Xenopus oocytes (cRNA injection)
T2 sequence (O15399 28-1336, other chains not shown): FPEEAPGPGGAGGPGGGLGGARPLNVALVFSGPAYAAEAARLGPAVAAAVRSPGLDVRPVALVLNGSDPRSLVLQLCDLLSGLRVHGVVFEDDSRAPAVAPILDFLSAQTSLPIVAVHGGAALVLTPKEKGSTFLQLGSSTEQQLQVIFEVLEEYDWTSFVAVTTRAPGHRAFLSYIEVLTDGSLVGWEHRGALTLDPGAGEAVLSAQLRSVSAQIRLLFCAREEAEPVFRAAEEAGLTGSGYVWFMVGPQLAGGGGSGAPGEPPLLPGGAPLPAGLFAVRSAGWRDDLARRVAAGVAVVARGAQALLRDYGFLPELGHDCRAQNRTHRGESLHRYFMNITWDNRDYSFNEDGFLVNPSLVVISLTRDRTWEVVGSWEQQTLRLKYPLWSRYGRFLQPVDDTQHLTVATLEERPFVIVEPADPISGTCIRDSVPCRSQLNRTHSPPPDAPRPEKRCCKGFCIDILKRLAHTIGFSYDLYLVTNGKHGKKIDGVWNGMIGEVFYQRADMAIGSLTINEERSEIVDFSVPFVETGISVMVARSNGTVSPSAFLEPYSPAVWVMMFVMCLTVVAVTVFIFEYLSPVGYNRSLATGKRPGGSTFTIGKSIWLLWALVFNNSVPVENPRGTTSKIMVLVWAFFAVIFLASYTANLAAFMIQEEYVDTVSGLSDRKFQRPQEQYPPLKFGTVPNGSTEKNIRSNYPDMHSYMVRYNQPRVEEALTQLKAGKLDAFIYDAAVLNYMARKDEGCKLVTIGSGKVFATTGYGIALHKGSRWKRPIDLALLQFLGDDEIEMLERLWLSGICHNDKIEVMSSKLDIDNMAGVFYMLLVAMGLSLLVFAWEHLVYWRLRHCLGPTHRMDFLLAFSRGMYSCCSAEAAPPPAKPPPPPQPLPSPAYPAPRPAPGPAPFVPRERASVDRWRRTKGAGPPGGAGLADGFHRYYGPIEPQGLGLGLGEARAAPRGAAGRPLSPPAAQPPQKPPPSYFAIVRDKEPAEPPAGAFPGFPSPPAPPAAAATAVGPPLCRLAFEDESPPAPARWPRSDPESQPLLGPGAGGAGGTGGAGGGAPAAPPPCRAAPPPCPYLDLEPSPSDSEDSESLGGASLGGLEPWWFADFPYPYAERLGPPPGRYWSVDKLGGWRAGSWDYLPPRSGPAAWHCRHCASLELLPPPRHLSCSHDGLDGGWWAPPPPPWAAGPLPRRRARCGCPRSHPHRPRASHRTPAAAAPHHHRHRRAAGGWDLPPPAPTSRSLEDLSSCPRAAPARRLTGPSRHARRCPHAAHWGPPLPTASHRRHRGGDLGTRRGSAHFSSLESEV
Protocol: as §1, §2
FIGURE 4 Effect of CNS4 on competitive and uncompetitive NMDA receptor antagonists. […] A similar experiment was performed with 100 μM DL‐AP5. […] Paired student‐t test was performed to calculate the statistical significance. […]

[4] = target: 1/2D NMDA receptor; settings: read-out: Glutamate potency EC50; cited from earlier work
[5] = target: 1/2A NMDA receptor; settings: read-out: Glutamate potency EC50; cited from earlier work
[6] = 100 μM antagonist plus 100 μM CNS4

For NCC(=O)O [glycine, reference compound], the “Glycine efficacy: relative fold change in current at highest glycine concentration” value [1] was 2.37 ± 0.23 fold.

For O=C(O)c1cc(=O)c2c(Cl)cc(Cl)cc2[nH]1 [DCKA], the “Block of agonist-induced currents” value ([2]; 100 μM antagonist alone) was 97.85 ± 0.66%, the “Block of agonist-induced currents” value [2, 6] was 98.98 ± 0.21% and the “Block of agonist-induced currents” value [3, 6] was 62.09 ± 2.27%.

In the case of N[C@@H](CCC(=O)O)C(=O)O [glutamate, L‐glutamate], the EC50 [4] is listed as roughly 500 nM and the EC50 [5] is listed as roughly 3000 nM.

In the case of NC(CCCP(=O)(O)O)C(=O)O (stereo not drawn) [DL‐AP5], the “Block of agonist-induced currents” value ([2]; 100 μM antagonist alone) is reported as 39.53 ± 1.22% and ~ 39%, the “Block of agonist-induced currents” value [2, 6] is reported as 38.10 ± 1.28% and the “Block of agonist-induced currents” value ([3]; 100 μM antagonist alone) is reported as 18.28 ± 10.47% and ~ 18%. For the same compound, the “Block of agonist-induced currents” value [3, 6] was 5.96 ± 10.59%.

From publication PMC10245146, “CNS4 causes subtype‐specific changes in agonist efficacy and reversal potential of permeant cations in NMDA receptors” (Pharmacology Research & Perspectives, 2023)
